Experimental data as given in patent US6963769B1, “Method for enhancing contrast produced by MRI” (The United States of America as represented by the …, priority 1999, dated 2005).
Values joined by “and” are separate entries in the source; they are usually repeats but may differ in a detail not shown here. Equal entries are not always repeated. Structures can show the parent of a compound that is named as a salt. Where two headings read alike, the source gives them in different places.

What was measured:
[1] = in vitro CEDST spectra of candidate contrast agents (proton chemical exchange with water), 7T; conditions: for chemical shift of proton chemical exchange site (ΔωcA): relative to water
Protocol: Test compounds were dissolved in HPLC grade water at concentrations denoted in Table 1 with inorganic phosphate buffers to maintain pH.
CEDST spectra were acquired at 7T using a Bruker AC-300 wide bore spectrometer at 37° C. The observation frequency was set on the water peak and the decoupler was used to provide off-resonance saturation. Studies were conducted using a steady-state with irradiation (15 seconds) over a range of irradiation frequencies ±8.00 ppm from water. CEDST spectra were plotted in the form of water amplitude (Ms) versus irradiation frequency.
Several chemical reagents, including 5,6-dihydrouracil, 5-hydroxy-tryptophan, hydantoin, parabanic acid, sugars, amino acids, nucleosides, and imidazoles (Table 1), were tested for their ability to undergo proton chemical exchange detected using CEDST. Chemical shifts are reported relative to the water resonance. The spectral dependence of CEDST was determined by sweeping the irradiation frequency and while monitoring the water resonance.
Saturation depends on the B1 power and the irradiation offset frequency. The appropriate power was determined by increasing power until no further decrease in Ms was observed. […] Spin lattice relaxation time constants (T1) were obtained with inversion-recovery experiments. The range of inversion delays (Ti) was between 0.001 and 30 seconds, with a 30 second pre-delay.

[2] = pKa of the proton exchange site
[3] = MR images of phantoms, 4T GRE sequence with off-resonance saturation at ±850 Hz (5.00 ppm), difference image; type: physicochemical
Protocol: The results in FIG. 3 confirm those of FIG. 2. MR images of phantoms were collected on a custom-designed 4T system operating at room temperature (about 20° C.). The imaging sequence itself is a GRE (Gradient Recalled Echo) imaging sequence with an off-resonance saturation pulse centered at an offset of 5.00 ppm (850 Hz for the field at 4 Tesla). The other parameters used were: 90 degree flip angle used, TE (Echo time)=9 msec, TR (Repetition time)=1.2 sec, 16 Sinc pulses, followed by crusher gradients (which completely dephased the transverse magnetization). Four test tubes are shown in FIG. 3, with each containing a different solution. Three contained 62.5 mM barbituric acid at pH=7.4, 7.0, or 6.5. The fourth test tube contained 500 mM NH4Cl at pH=5.0. These test tubes were placed inside the 4T NMR imaging system, irradiated at ±850 Hz, and both control and experimental images were collected as described previously. FIG. 3 is the difference image generated by subtracting the experimental image from the control image. […] Therefore, the signals in these phantoms were generated due to proton chemical exchange with barbituric acid. The brightest signal in these phantoms (where the control and experimental image difference was the greatest) was generated by barbituric acid at pH=7.4.

[4] = cited from earlier work
[5] = cited from earlier work; remark: listed apart in the source
rabbit bladder = experiment: in vivo CEDST MRI of rabbit bladder after intravenous barbituric acid, 4 Tesla; parameters: species or system New Zealand White rabbit
Protocol: This example describes the in vivo analysis of barbituric acid in a rabbit bladder. A male New Zealand White rabbit (1.5 kg, Hazelton Research Products, Denver Pa.) was initially anaesthetized with an intramuscular injection of a mixture of ketamine/acepromazaine (180 mg/2 mg), intubated and placed on a Siemens 900c ventilator (Siemens Medical Systems, Danvers Mass.). A catheter was placed in the marginal ear vein for infusion of intravenous fluids to maintain volume status. This catheter also was used to administer three doses of 50 mL barbituric acid solution (125 mM, pH=7.4, 20 mM phosphate buffer). Anesthesia was maintained with 2% isoflurane until sacrifice with 6 meq of KCl IV.
The rabbit was analyzed using a 4 Tesla magnet at the settings described in Example 1. The images were obtained after irradiation at the ppm offset characteristic of barbituric acid (5.25). […] The bladder and surrounding muscles are visible. This control image is collected to correct for the broad background of saturation transfer from macromolecules (i.e. proteins, lipids) located underneath the water signal. Guivel-Scharen et al., J. Magn. Reson., 133:36-45 (1998), herein incorporated by reference. […] This will irradiate the barbituric acid signal.
Following sacrifice of the rabbit, urine was collected and evaluated on the 7T system at 37° C. as described in Example 1. […] FIGS. 12-14 also confirm the identity of the metabolite imaged during the in vivo analysis.

[6] = sugars 250 mM, —OH protons, single pH 7.0, 37° C., 20 mM phosphate buffer
[7] = sugars 250 mM, —OH protons, single pH 7.0, 37° C., 20 mM phosphate buffer, saturation power 10.88 × 10^−7T
[8] = 125 mM, 37° C., 20 mM phosphate buffer, 10.88 × 10^−7T, at given ppm and pH
[9] = 125 mM, 37° C., 20 mM phosphate buffer, exchange site
[10] = 62.5 mM, 37° C., 20 mM phosphate buffer, 10.88 × 10^−7T, at given ppm and pH
[11] = 62.5 mM, 37° C., 20 mM phosphate buffer, exchange site
[12] = imidazole derivatives, ring protons (—NH), concentration not given, 37° C., 20 mM phosphate buffer
[13] = 35 mM, —NH2, 37° C., 20 mM phosphate buffer, 10.88 × 10^−7T, at listed pH
[14] = 125 mM, 3-NH, 37° C., 2 mM phosphate buffer, 10.88 × 10^−7T, at listed pH
[15] = 125 mM, guanidinium protons, single pH 7.0, 37° C., 20 mM phosphate buffer, 10.88 × 10^−7T

OC[C@H]1O[C@@](CO)(O[C@H]2O[C@H](CO)[C@@H](O)[C@H](O)[C@H]2O)[C@@H](O)[C@@H]1O [Sucrose]
ppm (relative to the resonant frequency of water) [1, 6]: 1.333 ppm
Mo − Ms (%) [1, 7]: 10.2%
Ms/Mo [1, 7]: 0.86

NC(=O)CC[C@H](N)C(=O)O [L-Glutamine]
Mo − Ms (%) [1, 8]: 27.6%
Ms/Mo [1, 8]: 0.70
ppm (relative to the resonant frequency of water) [1, 9]: 2.000 ppm

CCC1(CC)C(=O)NC(=O)NC1=O [Barbital (5,5-Diethyl-Barbituric Acid), 5,5-Diethyl-Barbituric Acid]
Mo − Ms (%) [1, 10]: 14.2%
Ms/Mo [1, 10]: 0.82
ppm (relative to the resonant frequency of water) [1, 11]: 5.000 ppm
pKa [2]: 7

Cl.N [NH4Cl, reference compound]
enhancement in difference image of phantoms [3]: neither the surrounding water nor the NH4Cl control were significantly affected

O=C1NCCN1 [2-Imidazolidone]
Mo − Ms (%) [1, 12]: 30.4% and 29.8%
Ms/Mo [1, 12]: 0.68
ppm (relative to the resonant frequency of water) [1, 12]: 1.167 ppm

O=C(O)C1CCCCN1 (stereo not shown) [Pipecolinic Acid]
Mo − Ms (%) [1, 10]: 19.3%
Ms/Mo [1, 10]: 0.81
ppm (relative to the resonant frequency of water) [1, 11]: 3.33 ppm

O=C1CNC(=O)N1 [Hydantoin]
Mo − Ms (%) [1, 10]: 18.7% and 21.3%
Ms/Mo [1, 10]: 0.81 and 0.78

N[C@@H](Cc1c[nH]c2ccccc12)C(=O)O [L-Tryptophan]
ppm (relative to the resonant frequency of water) ([1]; 35 mM, —NH2, 37° C., 20 mM phosphate buffer): 2.000 ppm
Mo − Ms (%) [1, 13]: 12.2%
Ms/Mo [1, 13]: 0.89

OC[C@@H](O)[C@@H](O)[C@H](O)[C@@H](O)CO [Sorbitol]
ppm (relative to the resonant frequency of water) [1, 6]: 1.000 ppm
Mo − Ms (%) [1, 7]: 7.3%
Ms/Mo [1, 7]: 0.88

C[C@H](N)C(=O)O [L-Alanine]
Mo − Ms (%) [1, 8]: 67.4%
Ms/Mo [1, 8]: 0.36
ppm (relative to the resonant frequency of water) [1, 9]: 3.000 ppm

O=C1CCNC(=O)N1 [5,6 Dihydrouracil]
Mo − Ms (%) [1, 10]: 22.2%
Ms/Mo [1, 10]: 0.78 and 0.77
ppm (relative to the resonant frequency of water) [1, 11]: 5.000 ppm and 2.667 ppm
chemical shift of proton chemical exchange site (ΔωcA) ([1]; running text, listed as 5,6-dihydro-uracil): 5.00 ppm and 2.67 ppm
chemical shift of proton chemical exchange site (ΔωcA) ([1]; running text, listed as 5,6-dihydrouracil): 5.0 ppm and 2.67 ppm
pKa of the 5.00 ppm site [4]: ~9.5

OC[C@@H](O)[C@@H](O)[C@H](O)[C@H](O)CO [Mannitol]
ppm (relative to the resonant frequency of water) [1, 6]: 1.000 ppm
Mo − Ms (%) [1, 7]: 9.0%
Ms/Mo [1, 7]: 0.89

O=C1CC(=O)NC(=S)N1 [2-Thio-Barbituric Acid]
Mo − Ms (%) [1, 10]: 35.3%
Ms/Mo [1, 10]: 0.65
ppm (relative to the resonant frequency of water) [1, 11]: 6.333 ppm
chemical shift of proton chemical exchange site (ΔωcA) [1]: 6.33 ppm

O=C(CO)[C@@H](O)[C@H](O)[C@H](O)CO [Fructose]
ppm (relative to the resonant frequency of water) [1, 6]: 1.333 ppm
Mo − Ms (%) [1, 7]: 9.3%
Ms/Mo [1, 7]: 0.88

NCCCC[C@H](N)C(=O)O [L-Lysine]
Mo − Ms (%) [1, 8]: 66.2%
Ms/Mo [1, 8]: 0.34
ppm (relative to the resonant frequency of water) [1, 9]: 3.000 ppm

O=c1ccn([C@@H]2O[C@H](CO)[C@@H](O)[C@H]2O)c(=O)[nH]1 [Uridine]
Ms/Mo [1, 14]: 0.65

O=C[C@H](O)[C@@H](O)[C@@H](O)[C@H](O)CO [Galactose]
ppm (relative to the resonant frequency of water) [1, 6]: 1.167 ppm
Mo − Ms (%) [1, 7]: 10.3%
Ms/Mo [1, 7]: 0.85

O=C(O)C1CCN1 (stereo not shown) [Azetidine-2-Carboxylic Acid]
Mo − Ms (%) [1, 10]: 25.5%
Ms/Mo [1, 10]: 0.74
ppm (relative to the resonant frequency of water) [1, 11]: 3.50 ppm

O=C1NC(=O)C(=O)N1 [Parabanic Acid]
Mo − Ms (%) [1, 10]: 20.5% and 25.4% and 22.5%
Ms/Mo [1, 10]: 0.79 and 0.74 and 0.77

Cc1cn([C@H]2C[C@H](O)[C@@H](CO)O2)c(=O)[nH]c1=O [Thymidine]
ppm (relative to the resonant frequency of water) ([1]; 125 mM, 3-NH, 37° C., 2 mM phosphate buffer): 6.333 ppm
Mo − Ms (%) [1, 14]: 34.8%
Ms/Mo [1, 14]: 0.65

N=C(N)N [Guanidine HCl]
ppm (relative to the resonant frequency of water) ([1]; 125 mM, guanidinium protons, single pH 7.0, 37° C., 20 mM phosphate buffer): 2.000 ppm
Mo − Ms (%) [1, 15]: 60.0%
Ms/Mo [1, 15]: 0.38

N[C@@H](Cc1c[nH]c2ccc(O)cc12)C(=O)O [5-Hydroxy-Tryptophan]
Ms/Mo [1, 10]: 0.57 and 0.79
ppm (relative to the resonant frequency of water) [1, 11]: 2.833 ppm and 5.333 ppm
chemical shift of proton chemical exchange site (ΔωcA) [1]: 5.33 ppm and 2.83 ppm
chemical shift of proton chemical exchange site (ΔωcA) ([1]; listed as 5-HT): 5.33 ppm

O=C1CC(=O)NC(=O)N1 [Barbituric Acid]
enhancement in difference image of phantoms ([3]; 4T, about 20° C., irradiated at ±850 Hz, barbituric acid 62.5 mM pH 7.4, 7.0, 6.5, NH4Cl 500 mM pH 5.0): enhanced
Mo − Ms (%) [1, 10]: 32.5%
Ms/Mo [1, 10]: 0.68
ppm (relative to the resonant frequency of water) [1, 11]: 5.000 ppm
chemical shift of proton chemical exchange site (ΔωcA) [1]: 5.00 ppm
pKa [2]: 12
Oral dosage toxicity, LD50 [5]: > 5000 mg/kg
physiological response to the injection (rabbit bladder; intravenous, 125 mM solution): physiologically unaltered (i.e. no change in blood pressure)
time to reach the kidneys (rabbit bladder; intravenous, 50 mL doses of 125 mM solution, pH 7.4): ≤ 20 min
location of signal remaining in the in vivo difference image (rabbit bladder; irradiation ±900 Hz (5.25 ppm/4T)): is in the bladder, not in the muscle or other tissues
